pIC50: −log10 of the molar value. Non-standard residues stand in square brackets, D forms with d. Nle = CCCC[C@H](N)C(=O)O
Key:
[1] = target: T1, wild-type human melanocortin 4 receptor (WT-hMC4R) (Homo sapiens, UniProt P32245); assay: Cyclic AMP assay (HTRF), antagonist competition against NDP-α-MSH; format: cell-based; settings: HEK293T cells stably expressing WT-hMC4R; inhibition of response to 4 nM NDP-α-MSH; cAMP
T1 construct: expressed in transfected cells
Procedure: The general procedures described above were used to prepare the examples described below. Reported HPLC retention time are for reverse-phase HPLC (Agilent, 1200 series) using the conditions reported above (See “General” section). Mass spectra were recorded on a 6210 G1969A LC/MSD TOF spectrometer from Agilent Technologies using the LC conditions reported above (See “General” section). IC50 values were obtained using the cAMP assay described below.
IC50 value is the half maximal concentration of the tested compound to inhibit half of the maximal response of the agonist NDP-α-MSH. It is a measurement of the antagonist compound potency.
Intracellular cyclic 3′-5′ adenosine monophosphate (cAMP) accumulation was measured using a competitive immunoassay based on HTRF (Homogeneous Time-Resolved Fluorescence) technology (cAMP dynamic-2, Cis-Bio).
HEK293T stable cell line expressing double-tagged WT-hMC4R construct were collected and washed in cAMP buffer (1×D-PBS pH 7.4, 0.1% glucose). 40,000 cells/well were then dispensed in 96-well plates in cAMP buffer [1×D-PBS, 1% BSA, 0.1% Glucose, 0.75 mM 3-isobutyl-1-methyl-xanthine (IBMX, Sigma)] and incubated either for antagonist competition assay: 1 hour at 37° C. with various concentrations of compound [0.01 nM-10 μM] followed by 30 min incubation at 37° C. with 4 nM of NDP-α-MSH (Sigma) or for agonist assay: 1 hour at 37° C. with various concentrations of compound [0.01 nM-10 μM]. 10,000 cells were transferred in 384-well plates, lysed and incubated with cAMP labeled with the dye d2 and anti-cAMP M-Antidody labeled with Cryptate following the manufacturer's protocol.
Reading of HTRF signal was performed on Artemis TR-FRET plate reader (Cosmo Bio).
All curve fitting was conducted using non-linear regression analyses from PRISM (version 4.0c, GraphPad Inc.) and the determination of Rmax and EC50 or IC50 parameters were obtained from sigmoidal dose-response phase (variable slope) equation.
A cDNA encoding a wild-type human MC4R with a 3 tandem copies of Hemaglutinine (HA) epitote sequence from UMR cDNA resource center was modified using known techniques in the art (e.g., PCR, cloning) to fused in frame at the C-terminal a venus-Yellow Fluorescent Protein (YFP) cDNA.
The resultant cDNA was then subcloned in eukaryotic expression vector, e.g. pcDNA 3.1(+) (Invitrogen).
The double tagged WT-hMC4R was transfected in HEK293T cells with lipofectamine (Invitrogen) following the manufacturer's instructions and permanently transfected clonal cell lines were selected by resistance to the neomycin analog G418.
HEK293T stable cell line expressing wild-type human melanocortin 4 receptor (WT-hMC4R) containing an N-terminal 3×HA epitope tag and an intracellular C-terminal venus-yellow fluorescent protein (v-YFP) were maintained at 37° C. in humidified air containing 5% CO2 in Dulbecoo's modified Eagle's medium (DMEM) supplemented with 10% fetal bovine serum (FBS), 100 U/ml penicillin/streptomycin (DMEM complete/10% FBS). Cells were generally at 70%-80% confluence on the day of assay.

[2] = test system: MC4R as compared to the MC3R; settings: Nijenhuis et al. 2003; Sutton et al. 2008; cited from earlier work
[3] = test system: MC4R as compared to the MC5R; settings: Nijenhuis et al. Peptides 2003; cited from earlier work

T1 sequence (P32245 whole entry): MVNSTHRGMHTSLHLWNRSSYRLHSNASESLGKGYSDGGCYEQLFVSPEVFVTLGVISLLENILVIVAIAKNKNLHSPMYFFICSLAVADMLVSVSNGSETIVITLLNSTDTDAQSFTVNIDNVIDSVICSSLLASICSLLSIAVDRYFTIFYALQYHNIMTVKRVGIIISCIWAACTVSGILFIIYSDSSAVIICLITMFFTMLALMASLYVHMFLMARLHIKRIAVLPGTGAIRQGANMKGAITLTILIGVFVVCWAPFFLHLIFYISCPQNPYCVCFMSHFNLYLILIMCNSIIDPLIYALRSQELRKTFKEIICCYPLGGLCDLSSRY

Row | Molecule | pIC50 [1] | selectivity for the MC4R as compared to the MC3R (MC4R/MC3R) [2] [fold] | selectivity for the MC4R as compared to the MC5R (MC4R/MC5R) [3] [fold]
1 | CCCCN(CCCC)C(=O)c1cc2c(cn1)nc(-c1ccc(OC)cc1)n2CCCN1CCCCC1 [Cpd 60] | 4.82 to 6.00 | – | –
2 | CCCCN(CCCC)C(=O)c1ccc2nc(SCC)n(CCCN3CCCCC3)c2n1 [Cpd 61] | 4.82 to 6.00 | – | –
3 | COc1ccc(Br)cc1-c1nc2cnc(C(=O)N(CCC(C)C)CCC(C)C)cc2n1CCCN1CCCCC1 [Cpd 64] | 4.82 to 6.00 | – | –
4 | CCCCN(CCCC)C(=O)c1ccc2nc(Nc3ccc(C(=O)O)cc3)n(CCCN3CCCCC3)c2n1 [Cpd 67] | 4.82 to 6.00 | – | –
5 | CC(C)CCN(CCC(C)C)C(=O)c1ccc2nc(Nc3cccnc3)n(CCCN3CCOCC3)c2n1 [Cpd 75] | 6.00 to 7.00 | – | –
6 | CC(C)CCN(CCC(C)C)C(=O)c1ccc2nc(NCc3ccc4c(c3)OCO4)n(CCCN3CCOCC3)c2n1 [Cpd 76] | 6.00 to 7.00 | – | –
7 | COc1ccc(-c2nc3ccc(C(=O)N(CCC(C)C)CCC(C)C)nc3n2CCCN2CCOCC2)cc1 [Cpd 77] | 4.82 to 6.00 | – | –
8 | CC(=O)N1CCC(c2nc3ccc(C(=O)N(CCC(C)C)CCC(C)C)nc3n2CCCN2CCOCC2)CC1 [Cpd 78] | 4.82 to 6.00 | – | –
9 | Ac-Nle-Gly-Lys-D-NaI(2)-Arg-Trp-Gly-NH(2) | – | 34 | 109
10 | Ac-Nle-Gly-Lys-D-Phe-Arg-Trp-Gly-NH(2) (Ac-[Nle]GK[dF]RWG-NH2; SMILES CCCC[C@H](NC(C)=O)C(=O)NCC(=O)N[C@@H](CCCCN)C(=O)N[C@H](Cc1ccccc1)C(=O)N[C@@H](CCCNC(=N)N)C(=O)N[C@@H](Cc1c[nH]c2ccccc12)C(=O)NCC(N)=O) | – | 90 | 110

The next lines start with results.

Row | pIC50 [1] | Molecule | selectivity for the MC4R as compared to the MC3R (MC4R/MC3R) [2] [fold] | selectivity for the MC4R as compared to the MC5R (MC4R/MC5R) [3] [fold]
11 | 6.00 to 7.00 | CCCCN(CCCC)C(=O)c1ccc2nc(Nc3ccc(C(=O)N4CCOCC4)cc3)n(CCCN3CCCCC3)c2n1 [Cpd 59] | – | –
12 | 6.00 to 7.00 | CCCCN(CCCC)C(=O)c1ccc2nc(Oc3ccc(OC)cc3)n(CCCN3CCCCC3)c2n1 [Cpd 62] | – | –
13 | 6.00 to 7.00 | COc1ccc(-c2nc3cnc(C(=O)N(CCC(C)C)CCC(C)C)cc3n2CCCN2CCCCC2)cc1 [Cpd 63] | – | –
14 | > 7.00 | CC(C)CCN(CCC(C)C)C(=O)c1cc2c(cn1)nc(-c1cc3ccccc3s1)n2CCCN1CCCCC1 [Cpd 65] | – | –
15 | 6.00 to 7.00 | CCCCN(CCCC)C(=O)c1cc2c(cn1)nc(Oc1ccc(OC)cc1)n2CCCN1CCCCC1 [Cpd 66] | – | –
16 | > 7.00 | CC(=O)c1ccc(Nc2nc3ccc(C(=O)N(CCC(C)C)CCC(C)C)nc3n2CCCN2CCCCC2)cc1 [Cpd 68] | – | –
17 | > 7.00 | CC(C)CCN(CCC(C)C)C(=O)c1ccc2nc(Nc3ccc(C(C)O)cc3)n(CCCN3CCCCC3)c2n1 (stereo not drawn) [Cpd 69] | – | –
18 | > 7.00 | CC(C)CCN(CCC(C)C)C(=O)c1ccc2nc(Nc3ccc(C(C)(C)O)cc3)n(CCCN3CCCCC3)c2n1 [Cpd 70] | – | –
19 | > 7.00 | COC(=O)c1ccc(Nc2nc3ccc(C(=O)N(CCC(C)C)CCC(C)C)nc3n2CCCN2CCCCC2)cc1 [Cpd 71] | – | –
20 | 6.00 to 7.00 | COc1ccc(-c2nc3ccc(C(=O)N(CCC(C)C)CCC(C)C)nc3n2CCCN2CCCCC2)cc1 [Cpd 72] | – | –
21 | 6.00 to 7.00 | CC(C)CCN(CCC(C)C)C(=O)c1ccc2nc(-c3ccc4c(c3)OCO4)n(CCCN3CCCCC3)c2n1 [Cpd 73] | – | –
22 | 6.00 to 7.00 | COc1ccc(Nc2nc3ccc(C(=O)N(CCC(C)C)CCC(C)C)nc3n2CCCN2CCOCC2)cc1 [Cpd 74] | – | –
